# Data: article PMC6688997 (Nature Communications, 2019)
# Values joined by “and” are separate entries in the source; they are usually repeats but may differ in a detail not shown here. Equal entries are not always repeated. Where two headings read alike, the source gives them in different places.
# What was measured:
# PKCβ1 = PKCβ1 (Homo sapiens, UniProt P05771); test: Kinase assay, ATP Km; assay type: biochemical
# p70S6Kβ = biological target: T1, p70S6Kβ (Homo sapiens, UniProt Q9UBS0); test: Kinase assay, ATP Km; assay type: biochemical
# T1 construct: purchased Carna Biosciences
# T1 sequence (Q9UBS0 whole entry): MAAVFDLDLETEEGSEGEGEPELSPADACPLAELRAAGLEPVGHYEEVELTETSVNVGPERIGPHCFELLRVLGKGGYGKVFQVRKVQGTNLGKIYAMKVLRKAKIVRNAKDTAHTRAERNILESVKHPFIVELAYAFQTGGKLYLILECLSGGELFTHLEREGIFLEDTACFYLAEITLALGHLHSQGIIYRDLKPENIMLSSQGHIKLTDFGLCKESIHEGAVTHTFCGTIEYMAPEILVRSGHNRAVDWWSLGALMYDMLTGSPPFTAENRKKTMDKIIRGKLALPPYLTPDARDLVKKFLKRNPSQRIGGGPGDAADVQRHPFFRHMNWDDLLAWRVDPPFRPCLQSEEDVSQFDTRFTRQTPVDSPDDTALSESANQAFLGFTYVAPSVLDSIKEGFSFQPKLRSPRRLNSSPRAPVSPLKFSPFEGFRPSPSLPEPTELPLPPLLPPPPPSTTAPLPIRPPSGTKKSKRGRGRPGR
# JAK1 = biological target: T2, JAK1 (Homo sapiens, UniProt P23458); test: Kinase assay, 1 mM ATP; assay type: biochemical
# T2 construct: purchased Carna Biosciences
# Outline: (§1)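 Enzyme inhibition was read by off-chip mobility shift; potency was derived by four-parameter logistic fitting.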
# CDK4/CycD3 = CDK4/CycD3 (Homo sapiens, UniProt P11802); test: Kinase assay, 1 mM ATP; assay type: biochemical
# Outline: as §1
# Erk5 = biological target: T3, Erk5 (Homo sapiens, UniProt Q13164); test: Kinase assay, 1 mM ATP; assay type: biochemical
# T3 construct: purchased Carna Biosciences
# Outline: as §1
# ROCK1 = ROCK1 (Homo sapiens, UniProt Q13464); test: Kinase assay, 1 mM ATP; assay type: biochemical
# Outline: as §1
# CHK2 = biological target: T4, CHK2 (Homo sapiens, UniProt O96017); test: Kinase assay, 1 mM ATP; assay type: biochemical
# T4 construct: purchased Carna Biosciences
# Outline: as §1
# EPHA6 = EPHA6 (Homo sapiens, UniProt Q9UF33); test: Kinase assay, 1 mM ATP; assay type: biochemical
# Outline: as §1
# MST1 = MST1 (Homo sapiens, UniProt Q13043); test: Kinase assay, 1 mM ATP; assay type: biochemical
# Outline: as §1
# TNIK = biological target: T5, TNIK (Homo sapiens, UniProt Q9UKE5); test: Kinase assay, 1 mM ATP; assay type: biochemical
# T5 construct: purchased Carna Biosciences
# Outline: as §1
# BMX = biological target: T6, BMX (Homo sapiens, UniProt P51813); test: Kinase assay, 1 mM ATP; assay type: biochemical
# T6 construct: purchased Carna Biosciences
# Outline: as §1
# EGFR(T790M) = biological target: T7, EGFR(T790M) (Homo sapiens, UniProt P00533, T790M); test: Kinase assay, 1 mM ATP; assay type: biochemical
# T7 construct: purchased Carna Biosciences
# T7 sequence (P00533 25-1210 T790M): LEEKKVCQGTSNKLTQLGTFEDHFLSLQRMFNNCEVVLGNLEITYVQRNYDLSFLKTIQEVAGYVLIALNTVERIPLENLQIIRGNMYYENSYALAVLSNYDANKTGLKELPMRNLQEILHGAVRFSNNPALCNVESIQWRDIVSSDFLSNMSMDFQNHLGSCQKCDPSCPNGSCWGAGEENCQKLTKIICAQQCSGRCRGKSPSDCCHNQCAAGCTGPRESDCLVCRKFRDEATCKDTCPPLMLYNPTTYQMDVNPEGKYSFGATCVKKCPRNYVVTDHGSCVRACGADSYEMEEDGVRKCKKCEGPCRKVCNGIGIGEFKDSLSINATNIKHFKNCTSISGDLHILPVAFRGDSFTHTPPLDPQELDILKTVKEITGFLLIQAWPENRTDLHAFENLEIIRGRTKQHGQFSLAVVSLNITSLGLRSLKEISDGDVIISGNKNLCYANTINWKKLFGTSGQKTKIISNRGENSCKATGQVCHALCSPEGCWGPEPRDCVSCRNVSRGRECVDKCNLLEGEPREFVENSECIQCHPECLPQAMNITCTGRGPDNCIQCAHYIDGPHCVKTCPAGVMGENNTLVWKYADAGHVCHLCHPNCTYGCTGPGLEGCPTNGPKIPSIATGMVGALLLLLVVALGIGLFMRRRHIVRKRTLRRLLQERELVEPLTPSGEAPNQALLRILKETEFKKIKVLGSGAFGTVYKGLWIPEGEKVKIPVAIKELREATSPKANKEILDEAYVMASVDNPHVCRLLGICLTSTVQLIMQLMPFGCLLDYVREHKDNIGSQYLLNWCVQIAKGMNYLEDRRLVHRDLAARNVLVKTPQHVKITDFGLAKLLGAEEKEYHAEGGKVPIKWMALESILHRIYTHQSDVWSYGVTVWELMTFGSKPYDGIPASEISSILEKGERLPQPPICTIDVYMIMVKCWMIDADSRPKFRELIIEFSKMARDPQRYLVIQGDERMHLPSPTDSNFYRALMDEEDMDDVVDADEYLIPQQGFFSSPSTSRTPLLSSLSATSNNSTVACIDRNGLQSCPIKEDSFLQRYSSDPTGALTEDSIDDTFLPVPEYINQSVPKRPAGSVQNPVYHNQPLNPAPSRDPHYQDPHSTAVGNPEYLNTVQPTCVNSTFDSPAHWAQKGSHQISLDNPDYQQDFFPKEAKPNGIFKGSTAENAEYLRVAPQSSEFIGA
# Outline: as §1
# EGFR(L861Q) = biological target: T8, EGFR(L861Q) (Homo sapiens, UniProt P00533, L861Q); test: Kinase assay, 1 mM ATP; assay type: biochemical
# T8 construct: purchased Carna Biosciences
# Outline: as §1
# FER = biological target: T9, FER (Homo sapiens, UniProt P16591); test: Kinase assay, 1 mM ATP; assay type: biochemical
# T9 construct: purchased Carna Biosciences
# Outline: as §1
# LYNa = LYNa (Homo sapiens, UniProt P07948); test: Kinase assay, 1 mM ATP; assay type: biochemical
# LYNa, sequence (P07948 whole entry): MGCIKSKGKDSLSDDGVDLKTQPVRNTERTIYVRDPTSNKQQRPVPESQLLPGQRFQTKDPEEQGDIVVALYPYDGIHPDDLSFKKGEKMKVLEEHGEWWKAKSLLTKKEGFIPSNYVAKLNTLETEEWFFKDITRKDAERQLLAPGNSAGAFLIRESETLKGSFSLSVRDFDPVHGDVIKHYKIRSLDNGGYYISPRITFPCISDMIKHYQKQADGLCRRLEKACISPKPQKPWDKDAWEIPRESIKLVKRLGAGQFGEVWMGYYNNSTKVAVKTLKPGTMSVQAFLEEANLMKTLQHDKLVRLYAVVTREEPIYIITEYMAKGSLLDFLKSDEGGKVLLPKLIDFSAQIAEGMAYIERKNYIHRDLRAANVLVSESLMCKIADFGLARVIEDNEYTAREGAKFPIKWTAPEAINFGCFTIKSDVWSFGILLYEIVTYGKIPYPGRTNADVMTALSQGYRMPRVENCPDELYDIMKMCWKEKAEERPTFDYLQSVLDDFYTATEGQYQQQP
# Outline: as §1
# ARG = ARG (Homo sapiens, UniProt P42684); test: Kinase assay, 1 mM ATP; assay type: biochemical
# Outline: as §1
# BLK = BLK (Homo sapiens, UniProt P51451); test: Kinase assay, 1 mM ATP; assay type: biochemical
# Outline: as §1
# AurC = biological target: T10, AurC (Homo sapiens, UniProt Q9UQB9); test: Kinase assay, 1 mM ATP; assay type: biochemical
# T10 construct: purchased Carna Biosciences
# Outline: as §1
# BRK = biological target: T11, BRK (Homo sapiens, UniProt Q13882); test: Kinase assay, 1 mM ATP; assay type: biochemical
# T11 construct: purchased Carna Biosciences
# Outline: as §1
# RET(S891A) = biological target: T12, RET(S891A) (Homo sapiens, UniProt P07949, S891A); test: Kinase assay, 1 mM ATP; assay type: biochemical
# T12 construct: purchased Carna Biosciences
# Outline: as §1
# AMPKα1/β1/γ1 = AMPKα1/β1/γ1 (Homo sapiens, UniProt Q13131); test: Kinase assay, 1 mM ATP; assay type: biochemical
# AMPKα1/β1/γ1, sequence (Q13131 whole entry): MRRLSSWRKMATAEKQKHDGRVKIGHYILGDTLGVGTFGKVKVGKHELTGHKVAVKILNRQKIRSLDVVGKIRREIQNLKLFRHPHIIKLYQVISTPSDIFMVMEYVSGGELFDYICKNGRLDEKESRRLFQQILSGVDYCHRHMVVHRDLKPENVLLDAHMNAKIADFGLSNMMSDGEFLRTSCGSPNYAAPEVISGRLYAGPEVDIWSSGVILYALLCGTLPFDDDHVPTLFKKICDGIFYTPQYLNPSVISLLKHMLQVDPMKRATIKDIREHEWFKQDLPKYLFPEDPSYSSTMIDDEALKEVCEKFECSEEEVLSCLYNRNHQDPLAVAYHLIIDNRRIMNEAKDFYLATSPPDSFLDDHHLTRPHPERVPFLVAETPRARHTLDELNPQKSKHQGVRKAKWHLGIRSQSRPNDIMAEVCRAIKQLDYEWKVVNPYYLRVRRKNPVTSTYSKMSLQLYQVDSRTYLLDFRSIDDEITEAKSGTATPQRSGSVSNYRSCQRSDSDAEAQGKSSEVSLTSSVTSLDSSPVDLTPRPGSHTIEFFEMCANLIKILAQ
# AMPKα1/β1/γ1, sequence (Q9Y478 whole entry partner): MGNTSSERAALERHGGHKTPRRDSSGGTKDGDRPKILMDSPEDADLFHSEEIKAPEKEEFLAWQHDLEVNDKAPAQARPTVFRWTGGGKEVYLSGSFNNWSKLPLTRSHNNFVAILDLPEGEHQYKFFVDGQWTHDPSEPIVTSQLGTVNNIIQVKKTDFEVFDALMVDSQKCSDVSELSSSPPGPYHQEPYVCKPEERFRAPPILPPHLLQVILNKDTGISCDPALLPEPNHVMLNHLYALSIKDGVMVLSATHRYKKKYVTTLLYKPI
# AMPKα1/β1/γ1, sequence (P54619 whole entry partner): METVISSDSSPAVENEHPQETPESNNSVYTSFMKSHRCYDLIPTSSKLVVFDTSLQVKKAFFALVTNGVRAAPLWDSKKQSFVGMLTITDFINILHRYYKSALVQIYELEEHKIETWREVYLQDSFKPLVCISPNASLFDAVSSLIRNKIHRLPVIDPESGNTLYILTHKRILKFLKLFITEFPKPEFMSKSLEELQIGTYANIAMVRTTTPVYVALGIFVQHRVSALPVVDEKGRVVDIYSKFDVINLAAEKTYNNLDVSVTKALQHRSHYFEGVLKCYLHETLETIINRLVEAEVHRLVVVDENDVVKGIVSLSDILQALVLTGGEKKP
# Outline: as §1
# RET(G691S) = biological target: T13, RET(G691S) (Homo sapiens, UniProt P07949, G691S); test: Kinase assay, 1 mM ATP; assay type: biochemical
# T13 construct: purchased Carna Biosciences
# Outline: as §1
# FGFR3 = biological target: T14, FGFR3 (Homo sapiens, UniProt P22607); test: Kinase assay, 1 mM ATP; assay type: biochemical
# T14 construct: purchased Carna Biosciences
# Outline: as §1
# CDK9/CycT1 = CDK9/CycT1 (Homo sapiens, UniProt P50750); test: Kinase assay, 1 mM ATP; assay type: biochemical
# Outline: as §1
# DAPK1 = DAPK1 (Homo sapiens, UniProt P53355); test: Kinase assay, 1 mM ATP; assay type: biochemical
# Outline: as §1
# p38δ = p38δ (Homo sapiens, UniProt O15264); test: Kinase assay, 1 mM ATP; assay type: biochemical
# Outline: as §1
# PIM2 = PIM2 (Homo sapiens, UniProt Q9P1W9); test: Kinase assay, 1 mM ATP; assay type: biochemical
# Outline: as §1
# PBK [1] = biological target: T15, PBK (Homo sapiens, UniProt Q96KB5); test: Kinase assay, 1 mM ATP; assay type: biochemical
# T15 construct: purchased Carna Biosciences
# T15 sequence (Q96KB5 whole entry): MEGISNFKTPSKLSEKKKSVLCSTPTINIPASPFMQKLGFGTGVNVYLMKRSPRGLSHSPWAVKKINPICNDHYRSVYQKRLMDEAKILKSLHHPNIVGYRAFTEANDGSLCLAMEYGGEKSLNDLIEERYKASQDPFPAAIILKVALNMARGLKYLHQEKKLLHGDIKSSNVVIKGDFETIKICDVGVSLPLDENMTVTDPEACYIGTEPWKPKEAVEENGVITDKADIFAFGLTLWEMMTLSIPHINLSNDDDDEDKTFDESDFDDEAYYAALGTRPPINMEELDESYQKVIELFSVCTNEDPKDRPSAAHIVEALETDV
# Outline: as §1
# p38γ = p38γ (Homo sapiens, UniProt P53778); test: Kinase assay, 1 mM ATP; assay type: biochemical
# p38γ, sequence (P53778 whole entry): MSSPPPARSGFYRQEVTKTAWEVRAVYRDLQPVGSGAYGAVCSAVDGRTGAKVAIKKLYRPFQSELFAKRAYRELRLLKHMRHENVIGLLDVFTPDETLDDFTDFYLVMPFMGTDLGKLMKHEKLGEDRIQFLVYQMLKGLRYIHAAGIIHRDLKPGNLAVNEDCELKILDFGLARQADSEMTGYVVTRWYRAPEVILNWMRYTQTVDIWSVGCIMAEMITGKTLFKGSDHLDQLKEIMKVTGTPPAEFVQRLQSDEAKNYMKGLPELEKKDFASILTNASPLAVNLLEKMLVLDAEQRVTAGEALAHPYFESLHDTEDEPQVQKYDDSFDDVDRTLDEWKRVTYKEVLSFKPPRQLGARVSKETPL
# Outline: as §1
# CDK7/CycH/MAT1 = CDK7/CycH/MAT1 (Homo sapiens, UniProt P50613); test: Kinase assay, 1 mM ATP; assay type: biochemical
# Outline: as §1
# MAPKAPK2 = biological target: T16, MAPKAPK2 (Homo sapiens, UniProt P49137); test: Kinase assay, 1 mM ATP; assay type: biochemical
# T16 construct: purchased Carna Biosciences
# Outline: as §1
# EPHA5 = EPHA5 (Homo sapiens, UniProt P54756); test: Kinase assay, 1 mM ATP; assay type: biochemical
# Outline: as §1
# JNK3 = JNK3 (Homo sapiens, UniProt P53779); test: Kinase assay, 1 mM ATP; assay type: biochemical
# JNK3, sequence (P53779 whole entry): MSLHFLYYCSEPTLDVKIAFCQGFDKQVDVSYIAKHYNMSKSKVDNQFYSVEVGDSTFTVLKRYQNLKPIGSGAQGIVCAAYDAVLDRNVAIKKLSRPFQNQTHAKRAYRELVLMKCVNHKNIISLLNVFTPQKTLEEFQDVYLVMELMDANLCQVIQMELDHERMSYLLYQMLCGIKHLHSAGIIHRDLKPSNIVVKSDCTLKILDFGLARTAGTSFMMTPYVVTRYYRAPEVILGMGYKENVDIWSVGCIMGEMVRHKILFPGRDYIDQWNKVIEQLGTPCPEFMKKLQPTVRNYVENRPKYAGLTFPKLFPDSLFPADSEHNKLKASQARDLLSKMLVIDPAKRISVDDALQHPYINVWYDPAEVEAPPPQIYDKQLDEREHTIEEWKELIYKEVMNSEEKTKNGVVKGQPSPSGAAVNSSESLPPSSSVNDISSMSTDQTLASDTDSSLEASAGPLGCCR
# Outline: as §1
# EPHA4 = biological target: T17, EPHA4 (Homo sapiens, UniProt P54764); test: Kinase assay, 1 mM ATP; assay type: biochemical
# T17 construct: purchased Carna Biosciences
# Outline: as §1
# EGFR(T790M/L858R) = biological target: T18, EGFR(T790M/L858R) (Homo sapiens, UniProt P00533, L858R/T790M); test: Kinase assay, 1 mM ATP; assay type: biochemical
# T18 construct: purchased Carna Biosciences
# Outline: as §1
# [2] = test system: Ba/F3-TPM3-NTRK1 cells (WT); test: CellTiter-Glo cell viability assay; assay type: cell-based, murine; settings: 72 h, read-out: IC50
# LOK = LOK (Homo sapiens, UniProt O94804); test: Kinase assay, ATP Km; assay type: biochemical
# FGFR2 = FGFR2 (Homo sapiens, UniProt P21802); test: Kinase assay, ATP Km; assay type: biochemical
# MAPKAPK5 = biological target: T19, MAPKAPK5 (Homo sapiens, UniProt Q8IW41); test: Kinase assay, ATP Km; assay type: biochemical
# T19 construct: purchased Carna Biosciences
# T19 sequence (Q8IW41 whole entry): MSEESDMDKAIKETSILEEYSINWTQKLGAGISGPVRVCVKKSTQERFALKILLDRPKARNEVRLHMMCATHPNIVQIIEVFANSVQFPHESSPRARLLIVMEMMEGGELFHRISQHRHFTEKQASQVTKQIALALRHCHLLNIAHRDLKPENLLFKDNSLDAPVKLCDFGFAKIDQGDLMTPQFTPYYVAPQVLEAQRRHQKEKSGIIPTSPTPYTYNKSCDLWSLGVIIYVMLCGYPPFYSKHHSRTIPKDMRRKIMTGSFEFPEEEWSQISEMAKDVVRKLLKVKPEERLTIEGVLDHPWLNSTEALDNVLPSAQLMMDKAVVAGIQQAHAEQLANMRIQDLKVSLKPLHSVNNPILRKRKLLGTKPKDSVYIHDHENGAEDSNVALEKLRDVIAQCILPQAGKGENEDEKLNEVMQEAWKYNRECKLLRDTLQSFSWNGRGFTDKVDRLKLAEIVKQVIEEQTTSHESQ
# PBK [3] = biological target: T15, PBK; test: Kinase assay, ATP Km; assay type: biochemical
# SRPK1 = biological target: T20, SRPK1 (Homo sapiens, UniProt Q96SB4); test: Kinase assay, ATP Km; assay type: biochemical
# T20 construct: purchased Carna Biosciences
smiles,measurement,setting,value
C[C@@H](N)COc1ccc(-c2cnc3ccc(N[C@H](C)c4cccc(F)c4)nn23)cc1.O=C(O)CCCCC(=O)O [DS-6051b],inhibition at 0.04 µM,PKCβ1,16.8%
same,inhibition at 0.04 µM,p70S6Kβ,9.8%
same,inhibition at 0.2 µM,JAK1,-2%
same,inhibition at 0.2 µM,CDK4/CycD3,-0.7%
same,inhibition at 0.2 µM,Erk5,5.2%
same,inhibition at 0.2 µM,ROCK1,-4.5%
same,inhibition at 0.2 µM,CHK2,0.3%
same,inhibition at 0.2 µM,EPHA6,-5.7%
same,inhibition at 0.2 µM,MST1,11.5%
same,inhibition at 0.2 µM,TNIK,-3%
same,inhibition at 0.2 µM,BMX,10%
same,inhibition at 0.2 µM,EGFR(T790M),-1.6%
same,inhibition at 0.2 µM,EGFR(L861Q),-3.6%
same,inhibition at 0.2 µM,FER,5.5%
same,inhibition at 0.2 µM,LYNa,3.1%
same,inhibition at 0.2 µM,ARG,-0.122%
same,inhibition at 0.2 µM,BLK,0.178%
same,inhibition at 0.2 µM,AurC,-19%
same,inhibition at 0.2 µM,BRK,13.4%
same,inhibition at 0.2 µM,RET(S891A),2.5%
same,inhibition at 0.2 µM,AMPKα1/β1/γ1,-3.6%
same,inhibition at 0.2 µM,RET(G691S),-0.256%
same,inhibition at 0.2 µM,FGFR3,1.3%
same,inhibition at 0.2 µM,CDK9/CycT1,-2.9%
same,inhibition at 0.2 µM,DAPK1,-0.6%
same,inhibition at 0.2 µM,p38δ,-1.3%
same,inhibition at 0.2 µM,PIM2,-14%
same,inhibition at 0.2 µM,PBK [1],-0.645%
same,inhibition at 0.2 µM,p38γ,0.224%
same,inhibition at 0.2 µM,CDK7/CycH/MAT1,-0.3%
same,inhibition at 0.2 µM,MAPKAPK2,-8.5%
same,inhibition at 0.2 µM,EPHA5,-9%
same,inhibition at 0.2 µM,JNK3,0.655%
same,inhibition at 0.2 µM,EPHA4,-3.4%
same,inhibition at 0.2 µM,EGFR(T790M/L858R),4%
same,IC50,[2],2.97 nM and 3 to 20 nM
same,IC50,[2]; Mus musculus,1.88 nM
same,inhibition at 0.04 µM,LOK,35%
same,inhibition at 0.04 µM,FGFR2,37.6%
same,inhibition at 0.04 µM,MAPKAPK5,-0.7%
same,inhibition at 0.04 µM,PBK [3],-2.5%
same,inhibition at 0.04 µM,SRPK1,-0.0643%
